The values below come from US20220364069A1, “METHOD FOR THE PRODUCTION OF AN ENZYMATIC COMPOSITION COMPRISING A RECOMBINANT ENDOPEPTIDASE” (NEMYSIS LIMITED, priority 2019, published 2022).

One series has as its system Escherichia coli L47. The series is described as follows: Broth microdilution antimicrobial assay, E. coli. Format: cell-based. As to conditions: E. coli L47, 18 h, 35° C.; for MIC: Escherichia coli, read-out: MIC (Minimal Inhibitory Concentration). The source says: (§1) As known, S. lividans TK24 could potentially produce actinorhodin (ACT), undecylprodigiosin (UDP), and calcium-dependent antibiotic (CDA), especially when grown under fermentation conditions. Broth microdilution assay, standardized by the Clinical and Laboratory Standards Institute (CLSI) was then used to evaluate antibiotic presence in samples deriving from enzyme preparations obtained by the method of the invention. Antimicrobial activity has been tested against test microorganisms (test-mo), known to not show any antibiotic resistance: Staphylococcus aureus ATCC6538 (representative of Gram+); Escherichia coli L47 (Lepetit collection; representative of Gram-); Candida albicans L145 (Lepetit collection; representative of Yeast).
(§2) A two-fold serial dilution of the samples to be tested was performed in sterile 96-well microplates, then inoculated with the test-mo in their respective medium (100 μl/well final volume); each determination was carried out in triplicate. The inoculated microplates were then incubated for 18, 20 and 24 h for E. coli, S. aureus and C. albicans, respectively, at 35° C. Antimicrobial activity of samples of unknown “antimicrobial” concentration was measured as endpoint, that is the highest dilution that inhibits the test strain growth; it was determined by visual examination of the microplates with the aid of a magnifying mirror.
Background: Dilution methods test growth across graded concentrations, often in twofold steps.

For series [1], the system named is Staphylococcus aureus ATCC6538. The series is described as follows: Broth microdilution antimicrobial assay, S. aureus. The format is cell-based. The conditions noted are these: S. aureus ATCC6538, 20 h, 35° C.; for MIC: Staphylococcus aureus, read-out: MIC (Minimal Inhibitory Concentration).
Excerpt: as §1, §2

The next series has as its system Candida albicans L145. The series is described as follows: Broth microdilution antimicrobial assay, C. albicans. Format: cell-based. The conditions noted are these: for MIC: Candida albicans, L145, read-out: MIC (Minimal Inhibitory Concentration).
Excerpt: as §1, §2

Series [2] can be described thus: Activity of culture supernatant toward sucAAPF-AMC at various pH. The format is biochemical. The protocol:
(§3) FIG. 1. Activity of Actinoallomurus A8 culture supernatant fraction containing the native E40. A: relative activity toward the substrate sucAlaAlaProPhe-AMC (sucAAPF-AMC) at various pH values (the optimum —100% activity— is at pH 5). B: Gliadin digestion after 2 hours of incubation at 37° C., pH 3. Gel stained with Coomassie R250 brilliant blue; Lane 1: gliadin alone, lane 2: gliadin+E40-containing supernatant fraction.
FIG. 3. Recombinant E40 (SEQ ID NO: 2) obtained by S. lividans TK24/p1J86/e40 submerged fermentation, at flask scale (panels A-C) or in a 15 L bioreactor, followed by purification (panels D-E). A: activity toward the substrate sucAAPF-AMC at pH 5 of supernatant samples taken at different fermentation times (♦72, ▴96, ●168, ▪192 fermentation hours) from the producing S. lividans TK24/p1J86/E40 (E40, continuous line) and absence of activity of supernatant samples taken from the pIJ86-empty control strain (ctr, dashed lines). Activity is shown as relative fluorescent units (rfu, Y axis) produced in time (X axis). […] D: profile of an enzyme preparation comprising recombinant E40 purified from the 15 L fermentation; lane 1: final enzyme preparation comprising recombinant E40 stained with Coomassie (the arrow indicates recombinant E40), lane 2: zymography as in C, lane 3: band of gelatin hydrolysis after 2 hours of digestion at 37° C. and pH 5, visualized after Coomassie staining of the gelatin substrate. E: relative activity (%) of recombinant E40 in the purified enzyme preparation at different pH values (from 2 to 8), evaluated with the substrate suc-Ala-Ala-Pro-Phe-pNA.
As well as native E40, recombinant E40 was active in the pH range 3-6, with an optimum at pH 5 (FIG. 3, panel B).

The subject of another series is gliadin. The experiment in a line: Gliadin digestion by native E40 fraction (SDS-PAGE). Format: biochemical. As to conditions: 2 hours, 37° C., pH 3. The protocol: as §3
Native E40 of sequence SEQ ID NO: 3 was purified from the supernatant fraction of an Actinoallomurus A8 culture isolated from soil (native E40) as described in WO2013083338.

Values after ≈ are worked out from the molar mass of the structure shown. Where two headings read alike, the source gives them in different places.

Take `CN[C@@H]1[C@@H](O[C@H]2O[C@H](CO)[C@@H](N)[C@H](O)[C@H]2O)OC2C[C@@H](N)[C@@H](O[C@H]3[C@H](O)[C@@H](O)[C@H](N)C[C@@H]3N)OC2[C@@H]1O` (stereo partly shown) [Apramycin]: the MIC with Escherichia coli L47 was 8 µg/mL (≈ 14.8 µM); in series [1] it was 8 µg/mL (≈ 14.8 µM); in the series on Candida albicans L145 (C. albicans L14, 24 h, 35° C.), above 128 µg/mL.
Consider `CCCCCCCCCC(=O)N[C@@H](Cc1c[nH]c2ccccc12)C(=O)N[C@H](CC(N)=O)C(=O)N[C@@H](CC(=O)O)C(=O)N[C@@H]1C(=O)NCC(=O)N[C@@H](CCCN)C(=O)N[C@@H](CC(=O)O)C(=O)N[C@H](C)C(=O)N[C@@H](CC(=O)O)C(=O)NCC(=O)N[C@H](CO)C(=O)N[C@@H]([C@H](C)CC(=O)O)C(=O)N[C@@H](CC(=O)c2ccccc2N)C(=O)O[C@@H]1C` [Daptomycin, daptomycin], for which the MIC in the series on Escherichia coli L47 is above 128 µg/mL; in series [1] it was 0.5 µg/mL (≈ 0.309 µM); in the series on Candida albicans L145 (C. albicans L14, 24 h, 35° C.), above 128 µg/mL.
Consider `C[C@@H]1[C@H](O)[C@@H](C)/C=C/C=C/C=C/C=C/C=C/C=C/C=C/[C@H](O[C@@H]2O[C@H](C)[C@@H](O)[C@H](N)[C@@H]2O)C[C@@H]2O[C@](O)(C[C@@H](O)C[C@@H](O)[C@H](O)CC[C@@H](O)C[C@@H](O)CC(=O)O[C@H]1C)C[C@H](O)[C@H]2C(=O)O` [Amphotericin B, amphotericin B], for which the “MIC (Minimal Inhibitory Concentration)” value against Escherichia coli L47 is above 128 µg/mL; in series [1] it was above 128 µg/mL; against Candida albicans L145 (C. albicans L14, 24 h, 35° C.), 0.5 µg/mL (≈ 0.541 µM).
Regarding `c1c[nH]cn1` [Imidazole, imidazole], the MIC with Candida albicans L145 (C. albicans L14) was 3.9 mM.

B1: Native E40: E40 of SEQ ID NO: 3 purified from supernatant fraction of an Actinoallomurus A8 culture as in WO2013083338 (protein)
chain: MSRRVTGTILGGLILAMVPFLSTAANAAPQAAPASVSHPFHHSCATVKPGRASCNALVRSDIAQSAATLAHQAAAPSGLSPANLQSAYKLPSSTAGSGQTVAIVDAYDAPTAEADLNVYRSQFGLGACTTANGCFKKVDQNGGTSYPRKDGGWAQEISLDLDMVSAVCPNCKIVLVEAKTNSFANLGTAENTAASLANVISNSYGGSDASDASYGSYYNHPGKAITVSSGDAGYGVEYPASSHYVTAVGGTSLRTASTSRGWSETAWSGAGSGCSAYNTALSGQSGLTGCSRRAVADVSAVADPATGVAVYDSTAYQGQSGWMVFGGTSVAAPIIGGVYGLAANAASIDNNYPYAHTSSLFDVTSGSNGTCTTTKWCTAGTGWDGPTGLGTPNGTGAF
modifications: Actinoallomurus
As to B1, the “pH range of marked glutenase activity” value in series [2] (native E40) was 3-6. For the same molecule, in series [2] (native E40-containing Actinoallomurus A8 supernatant fraction, sucAAPF-AMC), the “pH optimum of relative activity” value worked out at 5. For the same molecule, in the series on gliadin, the gliadin digestion entry is given as “completely digested”.
